Reference: patent US20070249519A1, “METHODS FOR THE UPREGULATION OF GLUT4 VIA MODULATION OF PPAR DELTA IN ADIPOSE TISSUE AND FOR THE TREATMENT OF DISEASE” (KALYPSYS, INC., priority 2006, published 2007)

How the values were obtained:
[1] = Glucose tolerance testing (GTT), DIO model in mice; type: in vivo, C57B1/6j mice
Source text: (§1) Metabolic syndrome in humans is characterized by abdominal obesity, high triglycerides, impaired fasting glucose and hyperinsulinemia. In the DIO model, mice are fed high fat diet (HFD, Research diet D12492, Research Diet, N.J.) diet (58% lard) for the entire period of the study. Compared to normal chow (NC, Harlan-Tekland #8604, WI) fed animals the HF fed mice develop several features of metabolic syndrome such as hypertriglyceridemia, hyperinsulinemia and mild hyperglycemia, as early as two weeks, on this diet. […] Additionally, GLUT4 expression is down regulated in HF-fed C57B1/6j mice after 4 weeks. This model was used to evaluate the pharmacological effects of a Compound 1 and Compound 2 in mitigating several features of HFD induced metabolic syndrome in rodents.
(§2) C57B1/6j mice (n=5-6 for each group) were fed ad libitum with either the HFD (58% fat) or NC (5%) diet for 4 weeks prior to start of experiments, and throughout the course of each experiment (Days −27 to Day 60). Starting on Day 1, mice were dosed BID with either 3 mg/kg Compound 1+vehicle, 9 mg/kg Compound 1+vehicle, 3 mg/kg Compound 2+vehicle, or vehicle alone, for the entire period of the study (day 0-60). Plasma Insulin, and glucose levels under fasting and postprandial (PP) conditions were measured using the Ultrasensitive Mouse Insulin ELISA kit (Mercodia) and glucometer (Accu-Check Compact, Roche) respectively. Appropriate dilutions were made in each case to ensure that the samples remained in the linear range of the standard curve. Animals were sacrificed and levels of Compound 1 and Compound 2 in adipose and muscle tissue were assayed using LC/Mass Spec. Tissues were collected at sacrifice at 3-4 hours post dosing with compound 1 or compound 2 in a fed state and GLUT4 mRNA expression was assessed using GLUT4 specific probes and branched DNA (bDNA) analyses (Epicenter Biotechnologies).

PPAR delta = target: T1, PPAR delta (Homo sapiens, UniProt Q03181); settings: GAL4 chimera, CV-1 cells, luciferase; cited from earlier work
T1 construct: expressed in transfected cells; host or cells: CV-1 cells
T1 sequence (Q03181 211-439 limits assumed): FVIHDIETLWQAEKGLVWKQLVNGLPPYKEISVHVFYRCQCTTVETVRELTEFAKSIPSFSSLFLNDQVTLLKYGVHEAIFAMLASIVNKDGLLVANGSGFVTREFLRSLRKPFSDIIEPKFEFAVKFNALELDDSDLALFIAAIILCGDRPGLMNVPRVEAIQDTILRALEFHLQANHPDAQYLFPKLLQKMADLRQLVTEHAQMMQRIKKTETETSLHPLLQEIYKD

PPAR alpha = target: T2, PPAR alpha (Homo sapiens, UniProt Q07869); settings: GAL4 chimera, CV-1 cells, luciferase; cited from earlier work
T2 construct: expressed in transfected cells; host or cells: CV-1 cells
T2 sequence (Q07869 239-466 limits assumed): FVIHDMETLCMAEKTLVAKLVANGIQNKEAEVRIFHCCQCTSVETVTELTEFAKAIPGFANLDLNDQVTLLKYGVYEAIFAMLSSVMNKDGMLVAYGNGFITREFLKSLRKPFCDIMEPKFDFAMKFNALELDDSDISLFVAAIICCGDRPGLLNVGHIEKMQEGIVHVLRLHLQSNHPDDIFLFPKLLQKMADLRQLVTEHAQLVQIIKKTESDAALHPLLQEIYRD

[2] = Insulin tolerance testing (ITT), DIO model in mice; type: in vivo, C57B1/6j mice; settings: NC and HFD cohorts, 3 and 9 mg/kg
Source text: as §1, with “This model was used to evaluate the pharmacological effects of a Compound 1 and Compound 2 in mitigating several features of HFD induced metabolic syndrome in rodents.” left out
(§3) C57B1/6j mice (n=5-6 for each group) were fed ad libitum with either the HFD (58% fat) or NC (5%) diet for 4 weeks prior to start of experiments, and throughout the course of each experiment (Days −27 to Day 60). […] Plasma Insulin, and glucose levels under fasting and postprandial (PP) conditions were measured using the Ultrasensitive Mouse Insulin ELISA kit (Mercodia) and glucometer (Accu-Check Compact, Roche) respectively. […] Tissues were collected at sacrifice at 3-4 hours post dosing with compound 1 or compound 2 in a fed state and GLUT4 mRNA expression was assessed using GLUT4 specific probes and branched DNA (bDNA) analyses (Epicenter Biotechnologies).

[3] = Compound level in adipose tissue by LC/Mass Spec, DIO model in mice; type: in vivo, C57B1/6j mice; settings: 8 weeks of treatment, 3 or 9 mg/kg/d Compound 1 vs 3 mg/kg/day Compound 2
Experimental: as §2

PPAR gamma = target: T3, PPAR gamma (Homo sapiens, UniProt P37231); settings: GAL4 chimera, CV-1 cells, luciferase; cited from earlier work
T3 construct: expressed in transfected cells; host or cells: CV-1 cells
T3 sequence (P37231 238-503 limits assumed): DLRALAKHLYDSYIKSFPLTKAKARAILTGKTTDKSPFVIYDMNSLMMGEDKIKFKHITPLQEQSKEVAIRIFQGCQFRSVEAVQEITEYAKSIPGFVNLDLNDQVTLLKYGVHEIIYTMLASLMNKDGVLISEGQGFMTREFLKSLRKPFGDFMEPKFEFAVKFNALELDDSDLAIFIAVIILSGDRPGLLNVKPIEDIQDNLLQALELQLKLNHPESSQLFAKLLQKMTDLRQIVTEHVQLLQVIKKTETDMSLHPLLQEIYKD

GLUT4 mRNA expression [4] = test: GLUT4 mRNA expression in muscle tissue, DIO model in mice; type: in vivo, C57B1/6j mice; settings: 14 weeks of treatment, 3 or 9 mg/kg, NC or HFD, vs vehicle
Source text: as §1, with “This model was used to evaluate the pharmacological effects of a Compound 1 and Compound 2 in mitigating several features of HFD induced metabolic syndrome in rodents.” left out
as §3

GLUT4 mRNA expression [5] = test: GLUT4 mRNA expression in adipose tissue, DIO model in mice; type: in vivo, C57B1/6j mice; settings: 3 or 9 mg/kg
Source text: as §1, with “This model was used to evaluate the pharmacological effects of a Compound 1 and Compound 2 in mitigating several features of HFD induced metabolic syndrome in rodents.” left out
as §3

[6] = in vivo; cited from earlier work
GLUT4 = settings: in vivo; cited from earlier work
GLUT4 translocation = settings: ZDF ob/ob and DIO C57BL/6 mice; cited from earlier work

Which “plasma glucose during GTT, effect by dose (FIG. 6)” value ([1]; HFD cohort, 3 and 9 mg/kg) does the source give for `C[C@@H]1CN(c2ccc(OC(F)(F)F)cc2)C[C@H](C)N1S(=O)(=O)c1cccc2c1CC(C(=O)O)C2` (mixture of isomers) [Compound 1, 4-[cis-2,6-Dimethyl-4-(4-trifluoromethoxy-phenyl)-piperazine-1-sulfonyl]-indan-2-carboxylic acid] here?
Its value is “an effect was seen at both doses”.

And the “plasma glucose during GTT (FIGS. 5 and 6)” value ([1]; NC and HFD cohorts)?
Its value is “increased glucose disposal”.

What about the “plasma insulin during GTT (FIGS. 7 and 8)” value ([1]; NC and HFD cohorts) of the same compound?
Its value is “decreased insulin levels”.

And the EC50 (PPAR delta)?
Its EC50 is under 5 µM.

What about the EC50 (PPAR alpha) of the same compound?
Its EC50 is over 100 µM.

What about the “plasma glucose during ITT (FIGS. 9 and 10)” value [2] of the same compound?
The value was “attenuated plasma glucose output”.

What about the “uptake (concentration) in murine adipose tissue (FIG. 4)” value [3] of the same compound?
The value was “preferentially uptaken over Compound 2”.

And the EC50 (PPAR gamma)?
Its EC50 is over 100 µM.

And the “GLUT4 mRNA expression in murine muscle tissue (FIG. 1)” value (GLUT4 mRNA expression [4])?
Its value is “no significant increase”.

What about the “GLUT4 mRNA expression in murine adipose tissue (FIG. 3)” value (GLUT4 mRNA expression [5]; 8 weeks of treatment, HFD cohort) of the same compound?
Its value is “upregulated”.

And the “GLUT4 mRNA expression in murine adipose tissue (FIG. 2)” value (GLUT4 mRNA expression [5]; 14 days of treatment, HFD fed mice)?
Its value is “normalized expression of GLUT-4”.

Which results are given for `C[C@@H]1CN(Cc2ccc(OC(F)(F)F)cc2)C[C@H](C)N1S(=O)(=O)c1cccc2c1CC(C(=O)O)C2` (mixture of isomers) [Compound 3, 4-[cis-2,6-Dimethyl-4-(4-trifluoromethoxy-benzyl)-piperazine-1-sulfonyl]-indan-2-carboxylic acid]?
EC50 (PPAR delta): < 5 µM; EC50 (PPAR alpha): 5 to 100 µM; EC50 (PPAR gamma): 5 to 100 µM

Which EC50 (PPAR delta) does the source give for `C[C@@H]1CN(c2ccc(OC(F)(F)F)cc2)C[C@H](C)N1S(=O)(=O)c1cccc2c1C[C@@H](C(=O)O)C2` [Compound 1A, (S)-4-[cis-2,6-Dimethyl-4-(4-trifluoromethoxy-phenyl)-piperazine-1-sulfonyl]-indan-2-carboxylic acid] here?
Its EC50 is under 5 µM.

What about the EC50 (PPAR alpha) of the same compound?
The EC50 was over 100 µM.

And the EC50 (PPAR gamma)?
Its EC50 is over 100 µM.

What does the source list for `Cc1cc(SCc2sc(-c3ccc(C(F)(F)F)cc3)nc2C)ccc1OCC(=O)O` [Compound 2, {2-Methyl-4-[4-methyl-2-(4-trifluoromethyl-phenyl)-thiazol-5-ylmethylsulfanyl]-phenoxy}-acetic acid]?
tissue partitioning [6]: preferentially partitions into muscular tissue; expression of GLUT4 in rat skeletal muscle (GLUT4): increased expression of GLUT4

What does the source list for `C[C@@H]1CN(Cc2ccc(OC(F)(F)F)cc2)C[C@H](C)N1S(=O)(=O)c1cccc2c1C[C@@H](C(=O)O)C2` [Compound 3A, (S)-4-[cis-2,6-Dimethyl-4-(4-trifluoromethoxy-benzyl)-piperazine-1-sulfonyl]-indan-2-carboxylic acid]?
EC50 (PPAR delta): < 5 µM; EC50 (PPAR alpha): > 100 µM; EC50 (PPAR gamma): 5 to 100 µM

For `CC(=O)NCCOC(=O)[C@H](Oc1cccc(C(F)(F)F)c1)c1ccc(Cl)cc1` [MBX-102], which “insulin sensitivity and GLUT4 translocation in adipose and muscular tissue” value (GLUT4 translocation) is on record?
Its value is “enhanced insulin sensitivity and GLUT4 translocation”.
